Source: patent US20110178104A1, “Anti-Heparin Compounds” (POLYMEDIX INC., priority 2010, published 2011)
Values after ≈ are worked out from the molar mass of the structure shown. Values joined by “and” are separate entries in the source; they are usually repeats but may differ in a detail not shown here. Identical values can stand only once.

Legend:
[1] = tested on: isolated human erythrocytes; experiment: cells; format: cell-based; conditions: for EC50: Homo sapiens, Erythrocyte, 1 h, human RBC, 1 hour at 37° C., read-out: Hemolysis EC50
Method in brief: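 Test agent was serially diluted two-fold over 0.48–1000 µg/ml and incubated for 1 h at 37 °C with shaking, using erythrocytes from pooled human blood diluted in Tris-buffered saline pH 7.4 (0.22% stock). Hemolysis was measured as supernatant absorbance at 405 nm. A four-parameter logistic equation gave EC50, and melittin served as the positive control.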

[2] = Cytotoxicity colorimetric assay, HepG2; format: cell-based, human; conditions: human, HepG2 cells, one hour in serum-free media
Method in brief: (§1)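 HepG2 cells (3×10^4/well, MEM + 10% FBS) and NIH/3T3 cells (2×10^4/well, DMEM + 10% BCS) were exposed to compound for 1 h in serum-free medium. Viability read by tetrazolium-to-formazan bioreduction after return to serum medium; EC50 from a four-parameter logistic fit.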

[3] = Cytotoxicity colorimetric assay, NIH/3T3; format: cell-based, mouse; conditions: mouse, NIH/3T3 cells, one hour in serum-free media
Method in brief: as §1

Unfractionated heparin = experiment: aPTT clotting assay, UFH 0.4 U/mL in plasma (Example 10); format: biochemical; conditions: unfractionated heparin 0.4 U/mL in plasma; aPTT clotting
Protocol: aPTT clotting Assay: Unfractionated heparin was mixed with plasma at a final concentration of 0.4 U/mL (or concentration which increases aPTT time to between 120 and 300 seconds). […] The ACL Elite Hemostasis analyzer (Beckman Coulter™) was used to add aPTT reagent (HemosIL SynthASil) to supplemented plasma. Clotting was initiated by addition of CaCl2 and time to clot was recorded.

UFH [4] = experiment: In vivo neutralization of unfractionated heparin in the rat; conditions: UFH 100 U/kg IV, 1 mg/kg dose IV
Protocol: The male Sprague-Dawley rats used in this study were obtained from Charles River Laboratories, Raleigh. They were nine-weeks-old at the start of the study and their weights ranged from 279-334 g. Rats were pre-treated with UFH administered by IV injection in a tail vein at 100 U/kg in a dose volume of 1 mL/kg. The rats were then treated with a single IV injection of saline, protamine or the appropriate test compound at doses of 0.25, 0.5 and 1.0 mg/kg. All treatments were dosed in a volume of 1 mL/kg. Blood was collected via the orbital sinus from three rats per group at the following time points after treatment: predose, 1, 3, 10, 30 and 60. At each time point, 1 mL of blood was collected from each animal into a single tube. The blood was analyzed using an AMEX Destiny Plus Coagulation Analyzer for activated partial thromboplastintime (APTT) and anti-Factor Xa.

UFH [5] = experiment: FXa amidolytic assay (Example 10), UFH; conditions: read-out: Heparin FXa uM EC50; UFH 0.03 units/mL; human antithrombin, bovine Factor Xa
Protocol: (§4) Two μl of test agent are added (range between 0.01 and 23 ug/ml) and incubated for 5 minutes at 23° C. Bovine Factor Xa was added to a final concentration of 0.636 nkat/mL and incubated for a further 10 minutes at 23° C.

enoxaparin [6] = experiment: FXa amidolytic assay (Example 10), enoxaparin; conditions: read-out: Enox FXa EC50; enoxaparin 0.1 ug/ml; human antithrombin, bovine Factor Xa
Protocol: as §4

tinzaparin = experiment: FXa amidolytic assay (Example 10), tinzaparin; conditions: read-out: Tinzap FXa EC50; tinzaparin 0.1 ug/ml; human antithrombin, bovine Factor Xa
Protocol: as §4

fondaparinux [7] = experiment: FXa amidolytic assay (Example 10), fondaparinux; conditions: for EC50: read-out: Fondap FXa EC50, fondaparinux 0.02 μg/mL, human antithrombin, bovine Factor Xa
Protocol: as §4

[8] = tested on: unfractionated heparin (UFH); experiment: aPTT clotting assay, UFH 0.2 U/mL in plasma (Example 7); format: biochemical; conditions: UFH 0.2 U/mL in plasma
Protocol: aPTT clotting Assay. Unfractionated heparin was mixed with plasma at a final concentration of 0.2 U/mL. […] The ACL Elite Hemostasis analyzer (Beckman Coulter™) was used to add aPTT reagent (HemosIL SynthASil) to supplemented plasma. Clotting was initiated by addition of CaCl2 and time to clot was recorded.

UFH [9] = experiment: FXa amidolytic assay in human plasma, UFH; format: biochemical; conditions: UFH 4 μg/mL
Protocol: (§2) Eight parts of pooled human plasma was supplemented with 1 part LMWH or UFH at final concentrations of 4 μg/mL, or fondarinux at a final concentration of 1.25 μg/mL. One 1 μL sample of test agent was then added to 9 μL of supplemented plasma (test agent concentration ranges=0.156 to 20 μg/mL) and mixed. The supplemented plasmas were analyzed immediately in clotting and amidolytic assays as described below. All samples were performed in duplicate.
FXa Amidolytic Assay: Bovine factor Xa was added to supplemented plasma and incubated for 5 minutes at 37° C. Spectrozyme FXa substrate was added and the optical density change at 405 nm was measured for 30 seconds. % factor Xa inhibition is calculated using the following equation:
(§3) % Inhibition=[(ODbaseline−ODsample)/ODbaseline]×100.

enoxaparin [10] = experiment: FXa amidolytic assay in human plasma, enoxaparin; format: biochemical; conditions: enoxaparin 10 μg/mL, at a concentration of about 50 μg/mL
UFH [11] = experiment: FIIa amidolytic assay in human plasma, UFH; format: biochemical; conditions: UFH 4 μg/mL
Protocol: as §2
FIIa Amidolytic Assay. Human thrombin was added to supplemented plasma and incubated for 1 minute at 37° C. Spectrozyme TH substrate was added and the optical density change at 405 nm was measured for 30 seconds in a SpectraMax 250 instrument. % factor IIa inhibition was calculated using the following equation:
as §3

enoxaparin (ENOX) = experiment: FXa chromogenic assay (absence of plasma), enoxaparin; conditions: enoxaparin 0.1 μg/mL, absence of plasma
Protocol: Human antithrombin was mixed with an anticoagulant agent (a LMWH or fondaparinux); final concentrations were 0.22 μg/mL for the LMWHs and 0.07 μg/mL for fondaparinux. […] Absorbance was read every 30 seconds over a 4 minute period in a SpectraMax 250 instrument (Molecular Devices, Inc.). EC50 values are determined by a curve-fit program (SoftMax Pro) using the following formula:
FXa Chromogenic Assay (absence of plasma). Human antithrombin was mixed with an anticoagulant (a LMWH or fondaparinux); final concentrations were 0.1 μg/mL for the LMWHs and 0.02 μg/mL for fondaparinux. […] Absorbance was read every 30 seconds over a 4 minute period in a SpectraMax 250 instrument (Molecular Devices Inc.™) The slope of absorbance vs time was calculated for each compound concentration. EC50 values were determined using a curve fit program (GraphPad Prism 5).

fondaparinux (FONDAPX) = experiment: FXa chromogenic assay (absence of plasma), fondaparinux; conditions: fondaparinux 0.02 μg/mL, absence of plasma
HepG2 cells = experiment: Cytotoxicity colorimetric assay, HepG2; format: cell-based, human; conditions: one hour in serum-free media
Method in brief: as §1

NIH/3T3 cells = experiment: Cytotoxicity colorimetric assay, NIH/3T3; format: cell-based, mouse; conditions: one hour in serum-free media
Method in brief: as §1

enoxaparin [12] = experiment: In vivo neutralization of enoxaparin in the rat
Protocol: Compounds were tested for their ability to neutralize enoxaparin coagulation inhibition in rats. Male Sprague-Dawley rats were used in this study (Charles River Laboratories). They were ten-weeks-old at the start of the study and their weights ranged from 319-362 g. Enoxaparin (2 mg/kg) was administered by IV injection to groups of six rats. After 3 min, saline, protamine or a test compound was administered by IV injection. Blood was collected before dosing with enoxaparin, and at 1, 3, 10, 30 and 60 min after dosing with the standard and test compounds. All treatments were dosed in a volume of 1 mL/kg. Blood was collected via the orbital sinus from three rats per group. At each time point, 1 mL of blood was collected from each animal into a single tube. The blood was analyzed using an AMEX Destiny Plus Coagulation Analyzer for activated partial thromboplastin time (APTT) and anti-Factor Xa (low-molecular weight).

enoxaparin [13] = experiment: Enoxaparin-extended bleeding times, rat tail transection model; format: in vivo; conditions: rat, enoxaparin 2 mg/kg IV, test agent 5 mg/kg IV
Protocol: Studies have now been done to examine effects on extended bleeding times caused by enoxaparin treatment. Male Sprague Dawley rats (Charles River) were administered 2 mg/kg enoxaparin by IV injection in the tail vein, followed 3 minutes later by test agent (IV, tail vein) at 2 and 5 mg/kg doses. Tails were then rapidly transected and bleeding time onto an absorbant pad was determined. Enoxaparin alone (no antagonist) extends bleeding time from 11 to 24 seconds.

fondaparinux [14] = experiment: In vivo neutralization of fondaparinux in the rat; conditions: fondaparinux 0.5 mg/kg IV, test agent 2 and 5 mg/kg IV
Protocol: Compounds were selected to test fondaparinux neutralization in vivo. Rats were pre-treated with fondaparinux administered by IV injection at 0.5 mg/kg. The rats were then treated with a single IV injection of saline, protamine or the PMX compound. Blood was collected via the orbital sinus from three rats per group at the following time points: pre-dose, 1, 3, 10, 30 and 60 min. Plasma samples were prepared for analysis of anti-factor Xa activity using an AMEX Destiny Plus Coagulation Analyzer.

blood pressure = experiment: Hemodynamic responses in the anesthetized rat; format: in vivo
From the text: As a key safety issue for cationic compounds is reduction in blood pressure shortly after administration. To address this hemodynamic issue, a medicinal chemistry strategy with literature precedence of introducing carboxylic acid functionality was applied to the salicylamide series of compounds. […] Surgically prepared animals were purchased from Charles River Laboratories, Raleigh, N.C. Animals were anesthetized on the day of experiment with isoflurane (1.8-4%). Blood pressure and heart rate data were collected on a Grass Polygraph recorder. The test articles, vehicle or protamine dosing preparations were administered once to each rat by a 10 minute intravenous infusion three minutes following a single intravenous injection of heparin (50 U/kg). Each animal received a dose volume of 2.0 mL/kg. Blood pressure was recorded prior to treatment for approximately 1 minute and immediately following heparin, immediately following vehicle, test articles or protamine and at 5, 15, 30, and 60 minutes following dosing. The doses of test agent were either 8 mg/kg or 16 mg/kg. The differences in hemodynamic effect at 16 mg/kg were especially profound (FIG. 5).

[15] = Coagulation properties via ROTEM; conditions: at fully efficacious doses
[16] = at a concentration of greater than about 25 μg/mL

Row | Structure (SMILES) | EC50 [1] | EC50 at 1 h [2] | EC50 at 1 h [3] | EC50 (Unfractionated heparin) | EC50 (UFH [5]) | EC50 (enoxaparin [6]) | EC50 (tinzaparin) | EC50 (fondaparinux [7]) | UFH (aPTT) EC50 [8] | percent of the anticoagulant effect of enoxaparin inhibited (FXa amidolytic) (enoxaparin [10]) | ENOX (FXa) EC50 (enoxaparin (ENOX)) | FONDAPX (FXa) EC50 (fondaparinux (FONDAPX)) | further results
1 | COc1cc(OC)c(C(=O)N[C@H]2CC[C@H](NC(=O)c3ccc(OCCCCCN)cc3OCCCCCN)CC2)cc1C(=O)N[C@H]1CC[C@H](NC(=O)c2ccc(OCCCCCN)cc2OCCCCCN)CC1 [Compound 335] | > 1000 µg/mL | 700 µg/mL (≈ 679 µM) | 120 µg/mL (≈ 116 µM) | 1700 nM and 1410 nM | 0.151 µM | 185 nM and 201 nM | 148 nM and 120 nM | 1560 nM and 1390 nM |  |  |  |  | neutralization of UFH activity in aPTT assays (UFH [4]): complete neutralization
2 | COc1ccc(NC(=O)[C@H](CCCCN)NC(=O)c2cc(NC(=O)[C@H](CCCCN)NC(=O)c3cc(NC(=O)[C@H](CCCCN)NC(=O)c4cc(NC(=O)[C@@H](N)CCCCN)ccc4OC)ccc3OC)ccc2OC)cc1C(N)=O [Compound 8] |  |  |  |  |  |  |  |  | 2.26 µg/mL | about 60% | 0.29 µg/mL | 6.19 µg/mL | percent of the anticoagulant effect of UFH inhibited (FXa amidolytic) (UFH [9]; [16]): 90%-100%; concentration antagonizing about 50% of the anticoagulant effect of UFH (FXa amidolytic) (UFH [9]; human plasma): 12 to 18 µg/mL; percent of the anticoagulant effect of UFH inhibited (FIIa amidolytic) (UFH [11]; [16]): 98%-100%; concentration antagonizing about 50% of the anticoagulant effect of UFH (FIIa amidolytic) (UFH [11]; human plasma): 14 to 20 µg/mL
3 | COc1ccc(NC(=O)[C@@H](CCCNC(=N)N)NC(=O)c2cc(NC(=O)[C@@H](CCCNC(=N)N)NC(=O)c3cc(NC(=O)[C@@H](CCCNC(=N)N)NC(=O)c4cc(NC(=O)[C@@H](C)N)ccc4OC)ccc3OC)ccc2OC)cc1C(N)=O [Compound 16] |  |  |  |  |  |  |  |  | 2.41 µg/mL | about 20% | 0.32 µg/mL | 1.22 µg/mL | 
4 | COc1ccc(NC(=O)[C@H](CCCCN)NC(=O)c2cc(NC(=O)[C@H](CCCCN)NC(=O)c3cc(NC(=O)[C@H](CCCCN)NC(=O)c4cc(NC(=O)[C@@H](N)CCCCN)ccc4OC)ccc3OC)ccc2OC)cc1C(=O)N[C@@H](Cc1c[nH]c2ccccc12)C(=O)O [Compound 266] | > 1000 µg/mL | 534 µg/mL (≈ 407 µM) | 838 µg/mL (≈ 638 µM) | 2440 nM and 1840 nM and 3480 nM | 0.21 µM and 0.247 µM | 122 nM and 162 nM and 164 nM | 122 nM and 151 nM and 121 nM | 214 nM and 265 nM and 368 nM |  |  |  |  | hemolysis and cytotoxicity (summary) [1]: non-hemolytic and low cytotoxicity; Cytotoxicity HepG2 EC50 (HepG2 cells): >1000 µg/mL; Cytotoxicity 3T3 EC50 (NIH/3T3 cells): 848 µg/mL; in vivo efficacy versus LMWH by anti-factor Xa activity (summary) (enoxaparin [12]; compared with protamine): superior to protamine; neutralization of enoxaparin (aPTT and factor Xa assays, words) (enoxaparin [12]; rat, enoxaparin 2 mg/kg IV): completely neutralizes enoxaparin within minutes; neutralization of prolonged bleeding times (enoxaparin [13]): incomplete neutralization; reduction of Factor Xa (anti-factor Xa) levels after fondaparinux (fondaparinux [14]): effective at the higher 5 mg/kg dose; hemodynamic response profile (blood pressure; anesthetized rat, 8 or 16 mg/kg 10 minute IV infusion after heparin 50 U/kg): superior to protamine; hemodynamic liabilities (summary) (blood pressure; rat, in vivo): reduced hemodynamic liabilities; coagulation properties via ROTEM [15]: normal coagulation properties at fully efficacious doses; Potent LMWH-antagonists with superior anti-fondaparinux activity (summary) (fondaparinux [7]): superior anti-fondaparinux activity
